Measurements: PubChem BioAssay AID248 (DTP/NCI, 2004)
“And” between values parts separate entries of the source, which are not always exact repeats. Identical values can stand only once. Inconclusive results and toxic doses are left out. No stated cut-off is given here; in the data, active means T/C of 150% or more; inactive means T/C below 125%.

Test system: L1210 leukemia ip in BDF1 mice, survival T/C
Test: NCI In Vivo Anticancer Drug Screen. Data for tumor model L1210 Leukemia (intraperitoneal) in B6D2F1 (BDF1) mice
Settings: endpoint: mean survival time, higher = longer survival
Outline: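 Read-out is survival time, reported as the treated-group measurement over the vehicle-control measurement.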

[1] = dose: 100.0 mg/kg/injection, schedule: Q01DX001 (ip), vehicle: carboxymethylcellulose (CMC)
[2] = dose: 200.0 mg/kg/injection, schedule: Q01DX001 (ip), vehicle: carboxymethylcellulose (CMC)
[3] = dose: 400.0 mg/kg/injection, schedule: Q01DX001 (ip), vehicle: carboxymethylcellulose (CMC)
[4] = dose: 100.0 mg/kg/injection, schedule: Q01DX009 (ip), vehicle: Klucel (hydroxypropylcellulose) (HPC)
[5] = dose: 200.0 mg/kg/injection, schedule: Q01DX009 (ip), vehicle: Klucel (hydroxypropylcellulose) (HPC)
[6] = dose: 100.0 mg/kg/injection, schedule: Q01DX009 (ip), vehicle: saline with Tween-80
[7] = dose: 100.0 mg/kg/injection, schedule: Q04DX003 (ip), vehicle: Klucel (hydroxypropylcellulose) (HPC)
[8] = dose: 100.0 mg/kg/injection, schedule: Q04DX003 (ip), vehicle: saline with Tween-80
[9] = dose: 200.0 mg/kg/injection, schedule: Q01DX009 (ip), vehicle: saline with Tween-80
[10] = dose: 200.0 mg/kg/injection, schedule: Q04DX003 (ip), vehicle: Klucel (hydroxypropylcellulose) (HPC)
[11] = dose: 200.0 mg/kg/injection, schedule: Q04DX003 (ip), vehicle: saline with Tween-80
[12] = dose: 400.0 mg/kg/injection, schedule: Q04DX003 (ip), vehicle: Klucel (hydroxypropylcellulose) (HPC)
[13] = dose: 400.0 mg/kg/injection, schedule: Q04DX003 (ip), vehicle: saline with Tween-80
[14] = dose: 100.0 mg/kg/injection, schedule: Q01DX001 (ip), vehicle: saline
[15] = dose: 200.0 mg/kg/injection, schedule: Q01DX001 (ip), vehicle: saline
[16] = dose: 400.0 mg/kg/injection, schedule: Q01DX001 (ip), vehicle: saline
[17] = dose: 100.0 mg/kg/injection, schedule: Q01DX001 (ip), vehicle: other
[18] = dose: 200.0 mg/kg/injection, schedule: Q01DX001 (ip), vehicle: other
[19] = dose: 400.0 mg/kg/injection, schedule: Q01DX001 (ip), vehicle: other

Measured: T/C

Cc1cc(NC(=O)Nc2ccc(F)cc2)no1
inactive: [1] 100 % of control | dose: 100.0 mg/kg/injection, schedule: Q01DX009 (ip), vehicle: carboxymethylcellulose (CMC) 97 % of control and 105 % of control | dose: 100.0 mg/kg/injection, schedule: Q04DX002 (ip), vehicle: carboxymethylcellulose (CMC) 104 % of control | [2] 97 % of control | dose: 200.0 mg/kg/injection, schedule: Q01DX009 (ip), vehicle: carboxymethylcellulose (CMC) 97 % of control | dose: 200.0 mg/kg/injection, schedule: Q04DX002 (ip), vehicle: carboxymethylcellulose (CMC) 92 % of control and 102 % of control | [3] 101 % of control | dose: 400.0 mg/kg/injection, schedule: Q01DX009 (ip), vehicle: carboxymethylcellulose (CMC) 94 % of control and 95 % of control | dose: 400.0 mg/kg/injection, schedule: Q04DX002 (ip), vehicle: carboxymethylcellulose (CMC) 92 % of control and 94 % of control

CNC(=O)Nc1ccccc1C(=O)NN
inactive: dose: 100.0 mg/kg/injection, schedule: Q01DX009 (ip), vehicle: other 100 % of control | dose: 200.0 mg/kg/injection, schedule: Q01DX009 (ip), vehicle: other 96 % of control

Cc1ccc(NC(=O)OCC2CC3C=CC2C3)cc1NC(=O)OCC1CC2C=CC1C2 (configuration not stated)
inactive: [4] 87 % of control | [5] 90 % of control | dose: 400.0 mg/kg/injection, schedule: Q01DX009 (ip), vehicle: Klucel (hydroxypropylcellulose) (HPC) 90 % of control

COC(=O)C1OC1c1ccc(OC)c(OC)c1 (configuration not stated)
inactive: [1] 95 % of control | [2] 97 % of control | [3] 101 % of control

O=C(O)CCC(NC(=O)OCc1ccccc1)C(=O)O (configuration not stated)
inactive: [6] 100 % of control | [7] 103 % of control | dose: 100.0 mg/kg/injection, schedule: Q04DX003 (ip), vehicle: other 98 % of control | [8] 104 % of control and 95 % of control | [9] 98 % of control | [10] 99 % of control | dose: 200.0 mg/kg/injection, schedule: Q04DX003 (ip), vehicle: other 102 % of control | [11] 101 % of control and 92 % of control | dose: 400.0 mg/kg/injection, schedule: Q01DX009 (ip), vehicle: saline with Tween-80 98 % of control | [12] 91 % of control | dose: 400.0 mg/kg/injection, schedule: Q04DX003 (ip), vehicle: other 98 % of control | [13] 101 % of control and 104 % of control

O=[N+]([O-])c1ccc(N2CCOCC2)c2c1no[n+]2[O-]
inactive: dose: 12.5 mg/kg/injection, schedule: Q04DX003 (ip), vehicle: saline with Tween-80 108 % of control | dose: 25.0 mg/kg/injection, schedule: Q04DX003 (ip), vehicle: saline with Tween-80 118 % of control | dose: 50.0 mg/kg/injection, schedule: Q04DX003 (ip), vehicle: saline with Tween-80 116 % of control

O=C(O)CSc1nc2ccccc2s1
inactive: [6] 107 % of control

CCCCC(=O)N/N=C/c1ccc([N+](=O)[O-])cc1
inactive: [14] 95 % of control | [15] 89 % of control | [16] 94 % of control

Cc1ccc(S(=O)(=O)N/N=C(/c2ccccc2)c2cccs2)cc1
inactive: [6] 102 % of control | [8] 90 % of control | [9] 91 % of control | [11] 96 % of control | [13] 96 % of control

CCCCCCCCCCCC(=O)NC(=S)Nc1ccc2ccccc2c1
inactive: [7] 86 % of control | [10] 86 % of control | [12] 86 % of control

CS(=O)(=O)OCCN(CCOS(C)(=O)=O)c1ccc(C=Nc2cccc(Br)c2)cc1
inactive: dose: 2.5 mg/kg/injection, schedule: Q04DX003 (ip), vehicle: Klucel (hydroxypropylcellulose) (HPC) 103 % of control | dose: 5.0 mg/kg/injection, schedule: Q04DX003 (ip), vehicle: Klucel (hydroxypropylcellulose) (HPC) 109 % of control | dose: 10.0 mg/kg/injection, schedule: Q04DX003 (ip), vehicle: Klucel (hydroxypropylcellulose) (HPC) 117 % of control | [7] 92 % of control

CNC
inactive: dose: 25.0 mg/kg/injection, schedule: Q04DX002 (ip), vehicle: saline with Tween-80 95 % of control | dose: 50.0 mg/kg/injection, schedule: Q04DX002 (ip), vehicle: saline with Tween-80 88 % of control | dose: 100.0 mg/kg/injection, schedule: Q04DX002 (ip), vehicle: saline with Tween-80 88 % of control

CC(=O)NS(=O)(=O)c1ccc(NC(=O)c2ccccc2C(=O)O)cc1
inactive: dose: 50.0 mg/kg/injection, schedule: Q01DX009 (ip), vehicle: saline with Tween-80 102 % of control | [6] 100 % of control | [8] 95 % of control | [9] 96 % of control | [11] 93 % of control

COc1ccc(CCO)cc1
inactive: [8] 92 % of control | [11] 101 % of control | [13] 95 % of control

CCN(CC)c1ccc(N=Nc2ccccc2)cc1
inactive: dose: 50.0 mg/kg/injection, schedule: Q01DX001 (ip), vehicle: carboxymethylcellulose (CMC) 93 % of control | [1] 86 % of control | [2] 96 % of control | [3] 98 % of control

CCCCCCNC(=O)Nc1ccc(Cl)c(Cl)c1
inactive: [14] 98 % of control | [15] 101 % of control | [16] 95 % of control

O=C(O)/C=C/c1ccncc1
inactive: [17] 103 % of control | dose: 100.0 mg/kg/injection, schedule: Q04DX002 (ip), vehicle: Klucel (hydroxypropylcellulose) (HPC) 93 % of control | dose: 100.0 mg/kg/injection, schedule: Q04DX003 (ip), vehicle: saline 103 % of control | [18] 105 % of control | dose: 200.0 mg/kg/injection, schedule: Q04DX002 (ip), vehicle: Klucel (hydroxypropylcellulose) (HPC) 86 % of control | dose: 200.0 mg/kg/injection, schedule: Q04DX003 (ip), vehicle: saline 92 % of control | [19] 97 % of control | dose: 400.0 mg/kg/injection, schedule: Q04DX002 (ip), vehicle: Klucel (hydroxypropylcellulose) (HPC) 93 % of control

Brc1cc(Br)c2[nH]c3c(Br)cc(Br)cc3c2c1
inactive: [4] 101 % of control | [5] 102 % of control

CCCCn1c(=O)cc(C)c2ccccc21
inactive: [17] 95 % of control | [18] 92 % of control | [19] 94 % of control

CCCCCCCCCCOP1(=O)C=C(C)CC1 (configuration not stated)
inactive: [8] 93 % of control | [11] 93 % of control

CCCC(/C=N\NC(=O)c1ccc[n+](C)c1)CC (configuration not stated)
inactive: dose: 50.0 mg/kg/injection, schedule: Q01DX009 (ip), vehicle: saline 103 % of control | dose: 100.0 mg/kg/injection, schedule: Q01DX009 (ip), vehicle: saline 103 % of control | dose: 200.0 mg/kg/injection, schedule: Q01DX009 (ip), vehicle: saline 100 % of control
